Source: article PMC3791872 (Bioscience Reports, 2013)

Tests used:
[1] = tested on: RPE-hTERT cells; assay: Human cell viability, MTS method; type: cell-based; conditions: Homo sapiens, 48 h, value (95% CI)
Procedure: Ciproﬂoxacin is an inhibitor of the Mcm2-7 […]
The viability of human cells was assayed using the MTS method
[1]. Brieﬂy, 1 ×10^5 cells of the human non-tumour cell line RPE-hTERT were plated into each well of a 96-well plate and grown in DMEM: F12 containing 10 % (v/v) FBS in 5 % (v/v) CO2 at 37 ◦ C. The next day, the indicated compounds were titrated into media such that the ﬁnal concentration contained 1 % (v/v)
DMSO. As a negative control, media were also prepared that contained 1 % DMSO but lacked compound. After 48 h, the media was removed and replaced with DMEM lacking phenol red but containing Cell Titer 96 Aqueous One Solution Cell Proliferation
Assay (Promega). After 1 h, the A490 nm was measured using a BioRad iMark Microplate Reader (Hercules). Final data reﬂect the average and standard deviation (S.D.) of three replicates at each compound concentration. […]

[2] = biological target: T1, T4 gp41 (Enterobacteria phage T4, UniProt P04530); assay: T4 gp41 helicase assay; type: biochemical; conditions: 1 mM, Figure S3
T1 sequence (P04530 1-475): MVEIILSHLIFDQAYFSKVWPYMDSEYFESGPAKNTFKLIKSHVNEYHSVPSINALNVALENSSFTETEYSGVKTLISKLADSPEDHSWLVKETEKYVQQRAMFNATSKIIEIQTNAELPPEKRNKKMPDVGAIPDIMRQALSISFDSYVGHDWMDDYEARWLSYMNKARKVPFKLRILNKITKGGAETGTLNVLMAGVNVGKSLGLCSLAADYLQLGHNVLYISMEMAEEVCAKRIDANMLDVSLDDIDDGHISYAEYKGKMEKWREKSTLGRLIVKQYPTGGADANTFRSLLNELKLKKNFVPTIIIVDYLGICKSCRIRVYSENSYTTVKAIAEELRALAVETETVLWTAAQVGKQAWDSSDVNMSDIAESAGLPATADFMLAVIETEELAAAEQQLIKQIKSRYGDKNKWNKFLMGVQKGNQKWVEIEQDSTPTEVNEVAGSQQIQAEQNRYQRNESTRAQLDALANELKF
Procedure: Helicase assays were performed essentially as described. Synthetic replication forks were prepared by annealing oligos 233 and 235 [IDT (Coralville), oligo 233 5′(T)40[…]; oligo 235 5′ […](T)40] and then filling in the recessed 3′-end with [α32P]dATP and unlabelled dNTPs using Klenow Fragment. Briefly, reactions ([…]) were performed in 1× helicase assay buffer [20 mM Tris/HCl (pH 7.5), 10 mM MgOAc, 20% (v/v) glycerol, 100 μM EDTA and 5 mM DTT (dithiothreitol)] and contained a final concentration of 1 nM fork substrate, 5 mM ATP, 40 mM creatine phosphate, […] creatine kinase, 33 μg/ml BSA. Reactions containing Mcm2-7 and Mcm467 were supplemented with 200 mM potassium glutamate. Reactions containing SsoMcm were incubated at 65°C, those containing T4 gp41 were incubated for 30 min at 37°C, and all other reactions were incubated at 37°C for 1 h. The products were separated by 10% (w/v) native PAGE, the resulting gels dried and the radioactivity quantified using a Fuji FLA-5100 phosphoimager. Irrespective of the protein used, all helicase assays contained equal molar helicase concentrations (100 nM, assuming in all cases that the active helicase form is hexameric). Steady-state ATP hydrolysis was assayed as published. In short, reactions were set up essentially as in the helicase assay, with minor exceptions. A non-radiolabelled DNA fork was used, helicase concentration was 100 nM (hexamer) the total ATP concentration was 500 μM and included ~0.5 μCi of [α32P]ATP, and the ATP regeneration system was omitted. Reactions were incubated for 1 h at 37°C and stopped by the addition of SDS. ATP was separated from ADP by PEI (polyethyleneimine) thin layer chromatography, and the ratio of ATP:ADP was quantified using a Fuji FLA-5100 phosphoimager. Based on our prior work, conditions were established to ensure that the results shown are within the linear range of the assay. Protein–ssDNA binding was determined with a double filter-binding assay using an ssDNA probe (oligo 826, 5′[…]) that was 5′-radiolabelled using T4 polynucleotide kinase and [γ32P]ATP [16]. For the double filter-binding assay, the helicase concentration was 150 nM (hexamer) and the ssDNA concentration was 4 nM. For all biochemical assays, helicases were preincubated with inhibitors for 20 min at 37°C unless otherwise indicated. […]
against different helicases
Representative helicase activity assays in the presence of the indicated inhibitor were tested, quantiﬁed and standardized as described in the legend to F igures 2 (A) and (B). All helicases were assayed at 100 nM
ﬁnal concentration (hexamer) with inhibitor preincubation prior to ATP […]
F igure S3 Ciproﬂoxacin poor ly inhibits hexameric helicases un- […]
All inhibitors were used at 1 mM ﬁnal concentration. […]

[3] = tested on: S. cerevisiae ∆erg6 (UPY675); assay: Yeast growth inhibition, 96-well assay, ∆erg6 strain; type: cell-based, Saccharomyces cerevisiae
[4] = biological target: T2, Mcm467 (Saccharomyces cerevisiae, UniProt P30665+P38132+P53091); assay: Steady-state ATP hydrolysis by Mcm467; type: biochemical; conditions: 1 mM compound, 100 nM hexamer
T2 construct: made in house; host or cells: baculovirus-infected insect cells
T2 sequence (P30665 whole entry): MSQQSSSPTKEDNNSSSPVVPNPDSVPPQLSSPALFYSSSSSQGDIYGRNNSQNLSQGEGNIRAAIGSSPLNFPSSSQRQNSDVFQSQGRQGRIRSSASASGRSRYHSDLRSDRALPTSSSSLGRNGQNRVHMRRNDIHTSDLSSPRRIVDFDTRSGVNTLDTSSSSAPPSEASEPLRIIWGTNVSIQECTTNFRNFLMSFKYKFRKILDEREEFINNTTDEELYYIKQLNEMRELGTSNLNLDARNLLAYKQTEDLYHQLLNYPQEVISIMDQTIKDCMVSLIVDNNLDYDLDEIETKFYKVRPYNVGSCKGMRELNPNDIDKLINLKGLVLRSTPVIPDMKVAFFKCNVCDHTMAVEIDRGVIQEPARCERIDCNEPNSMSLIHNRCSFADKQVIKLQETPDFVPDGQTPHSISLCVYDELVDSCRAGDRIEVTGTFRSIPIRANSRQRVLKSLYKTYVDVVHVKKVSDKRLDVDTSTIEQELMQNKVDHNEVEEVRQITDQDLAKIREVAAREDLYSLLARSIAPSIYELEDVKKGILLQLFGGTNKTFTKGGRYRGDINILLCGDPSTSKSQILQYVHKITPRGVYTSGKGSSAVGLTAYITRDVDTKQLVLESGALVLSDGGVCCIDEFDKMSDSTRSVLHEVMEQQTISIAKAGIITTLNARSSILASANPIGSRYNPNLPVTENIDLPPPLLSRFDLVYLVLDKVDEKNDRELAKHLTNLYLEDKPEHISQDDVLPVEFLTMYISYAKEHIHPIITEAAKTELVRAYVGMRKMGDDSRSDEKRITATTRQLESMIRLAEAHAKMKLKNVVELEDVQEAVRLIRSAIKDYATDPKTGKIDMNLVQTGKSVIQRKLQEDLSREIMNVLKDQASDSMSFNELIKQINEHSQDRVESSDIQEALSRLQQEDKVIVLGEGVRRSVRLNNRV
T2 sequence (P53091 whole entry): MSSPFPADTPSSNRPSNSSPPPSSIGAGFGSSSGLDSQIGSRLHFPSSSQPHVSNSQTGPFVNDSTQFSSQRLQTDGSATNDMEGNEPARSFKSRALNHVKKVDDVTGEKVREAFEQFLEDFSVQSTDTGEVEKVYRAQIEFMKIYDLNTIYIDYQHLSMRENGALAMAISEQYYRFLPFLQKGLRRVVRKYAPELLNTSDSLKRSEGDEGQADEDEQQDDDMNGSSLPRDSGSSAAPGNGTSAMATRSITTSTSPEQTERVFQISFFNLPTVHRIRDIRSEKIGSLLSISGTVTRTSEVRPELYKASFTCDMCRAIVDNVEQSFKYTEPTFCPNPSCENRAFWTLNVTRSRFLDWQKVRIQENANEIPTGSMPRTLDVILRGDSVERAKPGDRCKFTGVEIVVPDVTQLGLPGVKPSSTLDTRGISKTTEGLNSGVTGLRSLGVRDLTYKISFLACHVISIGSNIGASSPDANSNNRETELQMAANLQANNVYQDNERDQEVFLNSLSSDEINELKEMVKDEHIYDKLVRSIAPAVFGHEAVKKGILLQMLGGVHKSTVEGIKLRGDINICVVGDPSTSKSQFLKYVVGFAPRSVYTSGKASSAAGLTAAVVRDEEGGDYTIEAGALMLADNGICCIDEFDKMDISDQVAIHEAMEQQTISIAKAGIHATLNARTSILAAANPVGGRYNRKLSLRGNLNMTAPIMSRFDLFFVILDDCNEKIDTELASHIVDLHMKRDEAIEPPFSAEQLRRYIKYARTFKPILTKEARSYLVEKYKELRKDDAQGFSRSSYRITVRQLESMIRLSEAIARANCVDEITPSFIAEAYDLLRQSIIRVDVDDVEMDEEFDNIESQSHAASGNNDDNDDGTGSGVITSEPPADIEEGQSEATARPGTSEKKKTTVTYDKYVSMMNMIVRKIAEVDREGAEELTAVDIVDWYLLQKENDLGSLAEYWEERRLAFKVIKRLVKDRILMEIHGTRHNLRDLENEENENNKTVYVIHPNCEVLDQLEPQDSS
T2 sequence (P38132 whole entry): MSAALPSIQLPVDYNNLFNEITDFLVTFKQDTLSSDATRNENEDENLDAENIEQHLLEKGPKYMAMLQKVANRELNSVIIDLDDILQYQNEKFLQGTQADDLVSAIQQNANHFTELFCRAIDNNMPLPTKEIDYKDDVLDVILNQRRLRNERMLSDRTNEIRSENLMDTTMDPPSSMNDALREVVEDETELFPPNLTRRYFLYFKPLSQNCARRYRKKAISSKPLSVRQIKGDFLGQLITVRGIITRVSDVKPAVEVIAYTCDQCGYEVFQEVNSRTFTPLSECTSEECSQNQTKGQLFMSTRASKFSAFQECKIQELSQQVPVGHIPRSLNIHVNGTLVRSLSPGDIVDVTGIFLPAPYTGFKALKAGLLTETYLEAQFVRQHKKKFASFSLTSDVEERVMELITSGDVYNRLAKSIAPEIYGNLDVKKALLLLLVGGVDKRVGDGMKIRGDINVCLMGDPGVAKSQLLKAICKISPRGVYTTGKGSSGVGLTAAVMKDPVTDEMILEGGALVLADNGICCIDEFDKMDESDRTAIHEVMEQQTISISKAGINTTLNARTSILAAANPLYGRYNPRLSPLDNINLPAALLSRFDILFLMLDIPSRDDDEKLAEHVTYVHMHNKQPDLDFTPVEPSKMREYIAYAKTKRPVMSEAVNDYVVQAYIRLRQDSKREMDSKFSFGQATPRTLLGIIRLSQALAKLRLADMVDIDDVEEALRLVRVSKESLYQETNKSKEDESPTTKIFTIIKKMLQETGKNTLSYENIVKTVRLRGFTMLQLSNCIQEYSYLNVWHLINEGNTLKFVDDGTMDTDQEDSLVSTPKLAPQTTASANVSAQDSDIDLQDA

[5] = biological target: T3, SV40 large TAg (Simian virus 40, UniProt P03070); assay: Steady-state ATP hydrolysis by TAg; type: biochemical, SV40 (simian virus 40); conditions: 1 mM compound, 100 nM hexamer
T3 construct: made in house
T3 sequence (P03070 whole entry): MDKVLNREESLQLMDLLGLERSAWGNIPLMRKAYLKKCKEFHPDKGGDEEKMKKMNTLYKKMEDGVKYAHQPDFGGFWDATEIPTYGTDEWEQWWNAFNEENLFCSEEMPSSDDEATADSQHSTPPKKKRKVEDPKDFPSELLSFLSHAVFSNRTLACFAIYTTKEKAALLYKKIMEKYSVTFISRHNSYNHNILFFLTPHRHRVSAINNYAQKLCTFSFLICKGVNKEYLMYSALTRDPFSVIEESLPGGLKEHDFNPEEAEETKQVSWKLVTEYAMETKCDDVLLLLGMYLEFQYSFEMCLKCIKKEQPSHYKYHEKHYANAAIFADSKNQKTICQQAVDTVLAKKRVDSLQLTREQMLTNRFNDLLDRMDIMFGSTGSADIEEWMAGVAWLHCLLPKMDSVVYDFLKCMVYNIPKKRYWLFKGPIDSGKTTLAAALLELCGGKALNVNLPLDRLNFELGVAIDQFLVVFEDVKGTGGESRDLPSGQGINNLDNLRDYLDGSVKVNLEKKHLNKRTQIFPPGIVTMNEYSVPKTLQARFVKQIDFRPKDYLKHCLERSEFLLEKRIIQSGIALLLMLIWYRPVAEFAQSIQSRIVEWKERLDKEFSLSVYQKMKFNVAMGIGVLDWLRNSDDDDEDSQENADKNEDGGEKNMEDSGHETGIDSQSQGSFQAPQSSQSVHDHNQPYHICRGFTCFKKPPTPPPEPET

## O=C(O)c1cn(C2CC2)c2cc(N3CCNCC3)c(F)cc2c1=O [Ciprofloxacin, ciprofloxacin, reference compound]
[1]
  IC50: 240 µM
[2]
  inhibition of T4 gp41 helicase: none of the tested helicases were substantially inhibited
[3]; Figure 4A
  growth response of ∆erg6 yeast: demonstrable growth sensitivity
[3]; Saccharomyces cerevisiae, ∆erg6 strain, growth over 24 h, value (95% CI), read-out: IC50 Yeast
  IC50: 590 µM
[4]
  effect on ATP hydrolysis of Mcm467: only modest effects
[5]
  effect on ATP hydrolysis of TAg: only modest effects
